Target: T1, human SCD1 (Homo sapiens, UniProt O00767)
T1 construct: made in house; host or cells: baculovirus/Sf9
T1 sequence (O00767 1-359): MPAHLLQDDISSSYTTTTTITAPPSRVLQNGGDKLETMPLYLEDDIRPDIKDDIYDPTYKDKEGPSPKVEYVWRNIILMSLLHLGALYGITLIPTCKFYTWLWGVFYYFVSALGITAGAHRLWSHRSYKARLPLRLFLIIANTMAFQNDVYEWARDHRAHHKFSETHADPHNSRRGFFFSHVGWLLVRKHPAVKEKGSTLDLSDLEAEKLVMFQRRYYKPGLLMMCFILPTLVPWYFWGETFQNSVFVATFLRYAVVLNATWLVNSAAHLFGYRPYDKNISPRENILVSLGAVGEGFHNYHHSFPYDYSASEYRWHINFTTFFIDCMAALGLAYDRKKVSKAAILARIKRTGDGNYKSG
Assay: SCD enzyme activity assay, reconstituted human SCD1 desaturase system ([3H]-stearoyl-CoA conversion)
Assay type: biochemical
Settings: read-out: IC50 hSCD-1
Description: The potency of compounds of formula I against the stearoyl-CoA desaturase was determined by measuring the conversion of radiolabeled stearoyl-CoA to oleoyl-CoA using rat liver microsome or human SCD1 following previously published procedures with some modifications (Joshi, et al., J. Lipid Res., 18: 32-36 (1977); Talamo, et al., Anal. Biochem, 29: 300-304 (1969)). Liver microsome was prepared from male Wistar or Sprague Dawley rats on a high carbohydrate diet for 3 days (LabDiet #5803, Purina). The livers were homogenized (1:10 w/v) in a buffer containing 250 mM sucrose, 1 mM EDTA, 5 mM DTT and 50 mM Tris-HCl (pH 7.5). After a 100,000×g centrifugation for […], the liver microsome pellet was suspended in a buffer containing 100 mM sodium phosphate, 20% glycerol, 2 mM DTT, and stored at −78° C. Human SCD1 desaturase system was reconstituted using human SCD1 from a baculovirus/Sf9 expression system, cytochrome B5 and cytochrome B5 reductase. Typically, test compound in 2 μL DMSO was incubated for […] at room temperature with 180 μL of the SCD enzyme in a buffer containing 100 mM Tris-HCl (pH 7.5), ATP (5 mM), Coenzyme-A (0.1 mM), Triton X-100 (0.5 mM) and NADH (2 mM). The reaction was initiated by the addition of 20 μL of [^3H]-stearoyl-CoA (final concentration=2 μM, radioactivity concentration=1 μCi/mL). After 10 min, the reaction mixture (80 μL) was mixed with a calcium chloride/charcoal aqueous suspension (100 μL charcoal (10% w/v) plus 25 μL CaCl2 (2N). After centrifugation to precipitate the radioactive fatty acid species, tritiated water released from 9,10-[^3H]-stearoyl-CoA by the SCD enzyme was quantified on a scintillation counter.

Molecule | IC50 [nM]
2-(5-(2-(4-(4-Fluorophenyl)spiro[chromene-2,4′-piperidine]-1′-yl)thiazol-5-yl)-2H-tetrazol-2-yl)acetic acid [Example 6] | 1.3
2-(5-(5-(4-(4-Fluorophenyl)spiro[chromene-2,4′-piperidine]-1′-yl)-1,3,4-thiadiazol-2-yl)-2H-tetrazol-2-yl)acetic acid [Example 7] | 0.97
O=C(O)Cn1nnc(-c2cnc(N3CCC4(C=C(c5ccc(OC(F)(F)F)cc5)c5ccccc5O4)CC3)s2)n1 [Example 3, [5-(2-{-4-[4-(Trifluoromethoxy)phenyl]-1′H-spiro[chromene-2,4′-piperidin]-1′-yl}-1,3-thiazol-5-yl)-2H-tetrazol-2-yl]acetic acid] | 1.1
(5-{2-[4-(2,4-Dichlorophenyl)-1′H-spiro[chromene-2,4′-piperidin]-1′-yl]-1,3-thiazol-5-yl}-2H-tetrazol-2-yl)acetic acid [Example 5] | 1.1
(5-{2-[4-(2-Chlorophenyl)-1′H-spiro[chromene-2,4′-piperidin]-1′-yl]-1,3-thiazol-5-yl}-2H-tetrazol-2-yl)acetic acid [Example 1] | 0.92
(5-{5-[4-(2-Chlorophenyl)-1′H-spiro[chromene-2,4′-piperidin]-1′-yl]-1,3,4-thiadiazol-2-yl}-2H-tetrazol-2-yl)acetic acid [Example 2] | 0.61
(5-{5-[4-(2-Chlorophenyl)-1′H-spiro[chromene-2,4′-piperidin]-1′-yl]-1,3,4-thiadiazol-2-yl}-2H-tetrazol-2-yl)acetic acid [Example 4] | 2

Reference: patent US8383643B2, “Spiro compounds useful as inhibitors of stearoyl-coenzyme A delta-9 desaturase” (Merck Canada Inc., priority 2009, dated 2013)
